Measured values taken from patent US4831170A, “Pharmaceutically active phospino-hydrocarbon-group VIII-metal complexes, antitumor compositions containing these complexes, and a process for preparing said compounds or antitumor compositions” (priority 1985, dated 1989).
Values joined by “and” are separate entries in the source; they are usually repeats but may differ in a detail not shown here. Equal entries are not always repeated.

Columns and labels:
P388 murine leukemia = test: Antitumor activity against P388 murine leukemia in CDF1 mice; assay type: in vivo; conditions: 1 x on day 1; for P 388 Dose producing the maximum % T/C: administered ip; for P 388 Maximum % T/C: median survival time treated/saline control x 100, ip, active if ≥125
Experimental: (§1) All of the metal complexes were tested for antitumor activity against P388 murine leukemia. Selected compounds were also tested for antitumor activity against L1210 murine leukemia and a subline of L1210 murine leukemia resistant to cisplatin (L1210:DDP). CDF1 mice weighing 20 grams were inoculated intraperitoneally with 10^6 ascites cells of P388 leukemia, L1210 leukemia or L1210:DDP leukemia, depending on the test system being used. Drug administration was initiated the day following tumor implantation in all test systems. The complexes were administered at various dose levels by intraperitoneal injection. Groups of four to six mice were used for each dose level and they were treated with the complex on day one only. A group of ten saline treated control mice was included in each experiment. Cisplatin treated groups were included as a positive control in each experiment. The mice were weighed before treatment and again on day five or six and the average weight change used as a measure of toxicity. The animals were observed daily for mortality and the experiments terminated after 30 days. Antitumor activity was determined based on % T/C, which is the ratio of the median survival time of the drug treated group to the median survival time of the saline treated control group times 100. The saline treated mice usually have a median survival time of 9 days with P388 leukemia and 7 days with L1210 and L1210/DDP leukemia. A complex is considered active if it produces a % T/C of ≥125.
(§2) Tables II and IIa contain summaries of the evaluations of the compounds for antitumor activity against the murine leukemias. Listed for each compound is the maximum % T/C achieved and the dose producing that effect.
(§3) For the in vitro cytotoxicity studies the drugs were dissolved or suspended, depending on their solubility, in 0.9% NaCl solution. Occasionally, 5% dextrose in water or 10% DMSO in 0.9% NaCl was used. The compounds were prepared for in vivo treatment by dissolving or suspending, with the addition of minimal amounts of Tween 80, in water.

B16 Melanoma = test: Antitumor activity against B16 Melanoma in BDF1 mice; assay type: in vivo; conditions: for B 16 Dose producing the maximum % T/C: administered ip, days 1-9; for B 16 Maximum % T/C: median survival time vs saline control, ip, daily days 1-9, active if ≥125, figures separated by slashes are from separate experiments
Experimental: Several of the metal complexes were additionally evaluated for antitumor activity against B16 Melanoma. BDF1 mice, 10 per group, were inoculated intraperitoneally with 0.5 ml of a 10 percent (w:v) brei of B16 Melanoma. Intraperitoneal treatment with the metal complexes was initiated one day after implant and continued daily for a total of nine days. From 4 to 5 doses were tested for each compound under study. A saline treated control group and cisplatin treated groups were included in each experiment. The mice were observed daily for survivors and the experiments terminated after 60 days. […] The median survival time of the drug treated mice relative to that of the controls (% T/C) was used as a measure of antitumor activity.
Occasionally, 5% dextrose in water or 10% DMSO in 0.9% NaCl was used. The compounds were prepared for in vivo treatment by dissolving or suspending, with the addition of minimal amounts of Tween 80, in water.

L1210 murine leukemia = test: Antitumor activity against L1210 murine leukemia in CDF1 mice; assay type: in vivo; conditions: day 1; for L1210 Dose producing the maximum % T/C: administered ip; for L1210 Max. % T/C: median survival time treated/saline control x 100, ip, active if ≥125
Experimental: as §1, §2, §3

[1] = test system: L1210 murine leukemia resistant to cisplatin (L1210:DDP); test: Antitumor activity against cisplatin-resistant L1210 murine leukemia (L1210/DDP) in CDF1 mice; assay type: in vivo; conditions: cisplatin-resistant subline, day 1; for L1210/DDP Dose producing the maximum % T/C: administered ip; for L1210/DDP Max. % T/C: done concomitantly with L1210 test, ip, active if ≥125
Experimental: as §1, §2, §3

[2] = test system: B16-F10 murine melanoma cells; test: In vitro cytotoxicity, B16-F10 murine melanoma cells (72 h, crystal violet); assay type: cell-based
Experimental: (§4) Logarithmically growing cells were harvested by mild trypsinization and 4000 cells were added to each well of a 96-well microtiter plate (Costar). […] The cells were then treated with a metal complex or cisplatin and incubated for 72 hours. The plates were inverted and shaken to remove media, drug and detached cells. […] The fixative was removed, the plates air dried, stained with 0.0075% crystal violet for 15 minutes, washed twice and air dried. The stain was solubilized with 0.2 ml of 0.1 M AcOH/EtOH (1:1) and optical densities determined using a Dynatech MR600 microtiter plate reader. […] The compounds were prepared for in vivo treatment by dissolving or suspending, with the addition of minimal amounts of Tween 80, in water.

[3] = test system: HCT-116 human colon carcinoma cells; test: In vitro cytotoxicity, HCT-116 human colon carcinoma cells (72 h, crystal violet); assay type: cell-based; conditions: HCT-116 cells
Experimental: as §4

Molecule: O=S(=O)([O-])C(F)(F)F.[Rh+].c1ccc(P(CCP(c2ccccc2)c2ccccc2)c2ccccc2)cc1.c1ccc(P(CCP(c2ccccc2)c2ccccc2)c2ccccc2)cc1 [TNO 302, Bis[1,2-bis(diphenylphosphino)ethane]rhodium(I) triflate]
- P 388 Dose producing the maximum % T/C (P388 murine leukemia): 4 mg/kg
- P 388 Maximum % T/C (P388 murine leukemia): 153 % T/C
- B 16 Dose producing the maximum % T/C (B16 Melanoma): 3.2 mg/kg/inj.
- B 16 Maximum % T/C (B16 Melanoma): 150 % T/C and 126 % T/C

Molecule: [O-][Cl+3]([O-])([O-])[O-].[Rh+].c1ccc(P(CCP(c2ccccc2)c2ccccc2)c2ccccc2)cc1.c1ccc(P(CCP(c2ccccc2)c2ccccc2)c2ccccc2)cc1 [TNO 316, Bis[1,2-bis(diphenylphosphino)ethane]rhodium(I) perchlorate]
- P 388 Dose producing the maximum % T/C (P388 murine leukemia): 12.5 mg/kg
- P 388 Maximum % T/C (P388 murine leukemia): 150 % T/C
- L1210 Dose producing the maximum % T/C (L1210 murine leukemia): 160 mg/kg
- L1210 Max. % T/C (L1210 murine leukemia): 133 % T/C
- L1210/DDP Dose producing the maximum % T/C [1]: 120 mg/kg
- L1210/DDP Max. % T/C [1]: 157 % T/C
- B 16 Dose producing the maximum % T/C (B16 Melanoma): 16 mg/kg/inj.
- B 16 Maximum % T/C (B16 Melanoma): 131 % T/C

Molecule: [I-].[I-].[Pd+2].c1ccc(P(CCP(c2ccccc2)c2ccccc2)c2ccccc2)cc1.c1ccc(P(CCP(c2ccccc2)c2ccccc2)c2ccccc2)cc1 [TNO 342, Bis[1,2-(diphenylphosphino)ethane]diiodo palladium(II)]
- P 388 Dose producing the maximum % T/C (P388 murine leukemia): 5 mg/kg
- P 388 Maximum % T/C (P388 murine leukemia): 139 % T/C

Molecule: [O-][Cl+3]([O-])([O-])[O-].[O-][Cl+3]([O-])([O-])[O-].[Pd+2].c1ccc(P(CCP(c2ccccc2)c2ccccc2)c2ccccc2)cc1.c1ccc(P(CCP(c2ccccc2)c2ccccc2)c2ccccc2)cc1 [TNO 343, Bis[1,2-bis(diphenylphosphino)ethane]palladium(II) diperchlorate]
- P 388 Dose producing the maximum % T/C (P388 murine leukemia): 200 mg/kg
- P 388 Maximum % T/C (P388 murine leukemia): 178 % T/C
- B 16 Dose producing the maximum % T/C (B16 Melanoma): 60 mg/kg/inj.
- B 16 Maximum % T/C (B16 Melanoma): 204 % T/C

Molecule: O=[N+]([O-])[O-].O=[N+]([O-])[O-].[Pd+2].c1ccc(P(CCP(c2ccccc2)c2ccccc2)c2ccccc2)cc1.c1ccc(P(CCP(c2ccccc2)c2ccccc2)c2ccccc2)cc1 [TNO 345, Bis[1,2-bis(diphenylphosphino)ethane]palladium(II) dinitrate]
- IC 50 (concentration which inhibits cell growth by 50%), B 16 [2]: 4.0 µg/mL
- IC 50 (concentration which inhibits cell growth by 50%), HCT 116 [3]: 19.6 µg/mL
- L1210 Dose producing the maximum % T/C (L1210 murine leukemia): 0,8 mg/kg
- L1210 Max. % T/C (L1210 murine leukemia): 100 % T/C

Molecule: [Br-].[Br-].[Co+2].c1ccc(P(CCP(c2ccccc2)c2ccccc2)c2ccccc2)cc1.c1ccc(P(CCP(c2ccccc2)c2ccccc2)c2ccccc2)cc1 [TNO 346, Bis[1,2-bis(diphenylphosphino)ethane]bromo cobalt(II) bromide]
- P 388 Dose producing the maximum % T/C (P388 murine leukemia): 100 mg/kg
- P 388 Maximum % T/C (P388 murine leukemia): 167 % T/C
- L1210 Dose producing the maximum % T/C (L1210 murine leukemia): 200 mg/kg
- L1210 Max. % T/C (L1210 murine leukemia): 100 % T/C

Molecule: [Cl-].[Cl-].[Cl-].[Rh+3].c1ccc(P(CCP(c2ccccc2)c2ccccc2)c2ccccc2)cc1.c1ccc(P(CCP(c2ccccc2)c2ccccc2)c2ccccc2)cc1 [TNO 363, Bis[1,2-bis(diphenylphosphino)ethane]dichloro rhodium(III) chloride]
- P 388 Dose producing the maximum % T/C (P388 murine leukemia): 50 mg/kg
- P 388 Maximum % T/C (P388 murine leukemia): 133 % T/C

Molecule: [Br-].[Br][Pd+].c1ccc(P(CCP(c2ccccc2)c2ccccc2)c2ccccc2)cc1.c1ccc(P(CCP(c2ccccc2)c2ccccc2)c2ccccc2)cc1 [TNO 376, Bis[1,2-bis(diphenylphosphino)ethane]bromo palladium(II) bromide]
- IC 50 (concentration which inhibits cell growth by 50%), B 16 [2]: 0.7 µg/mL
- IC 50 (concentration which inhibits cell growth by 50%), HCT 116 [3]: 6.3 µg/mL

Molecule: [Cl-].[Cl-].[O-][Cl+3]([O-])([O-])[O-].[Rh+3].c1ccc(P(CC[As](c2ccccc2)c2ccccc2)c2ccccc2)cc1.c1ccc(P(CC[As](c2ccccc2)c2ccccc2)c2ccccc2)cc1 [TNO 395, Bis[1-diphenylphosphino-2-diphenylarsinoethane]dichloro rhodium(III) perchlorate]
- P 388 Dose producing the maximum % T/C (P388 murine leukemia): 200 mg/kg
- P 388 Maximum % T/C (P388 murine leukemia): 136 % T/C

Molecule: C(=CP(c1ccccc1)c1ccccc1)P(c1ccccc1)c1ccccc1.C(=CP(c1ccccc1)c1ccccc1)P(c1ccccc1)c1ccccc1.[Cl-].[Cl-].[Fe+2] [TNO 396, Bis[cis-1,2-bis(diphenylphosphino)ethylene]dichloro iron(II)]
- IC 50 (concentration which inhibits cell growth by 50%), B 16 [2]: 452 µg/mL
- IC 50 (concentration which inhibits cell growth by 50%), HCT 116 [3]: 383 µg/mL
- P 388 Dose producing the maximum % T/C (P388 murine leukemia): 200 mg/kg
- P 388 Maximum % T/C (P388 murine leukemia): 150 % T/C

Molecule: [Ir+3].[O-][Cl+3]([O-])([O-])[O-].[O-][O-].c1ccc(P(CCP(c2ccccc2)c2ccccc2)c2ccccc2)cc1.c1ccc(P(CCP(c2ccccc2)c2ccccc2)c2ccccc2)cc1 [TNO 413, Bis[1,2-bis(diphenylphosphino)ethane]peroxo iridium(III) perchlorate]
- P 388 Dose producing the maximum % T/C (P388 murine leukemia): 200 mg/kg
- P 388 Maximum % T/C (P388 murine leukemia): 170 % T/C

Molecule: Bis[1,2-bis(diphenylphosphino)ethane] cobalt(II) diperchlorate [TNO 358]
- P 388 Dose producing the maximum % T/C (P388 murine leukemia): 100 mg/kg
- P 388 Maximum % T/C (P388 murine leukemia): 144 % T/C
- L1210 Dose producing the maximum % T/C (L1210 murine leukemia): 120 mg/kg
- L1210 Max. % T/C (L1210 murine leukemia): 142 % T/C
- L1210/DDP Dose producing the maximum % T/C [1]: 100 mg/kg
- L1210/DDP Max. % T/C [1]: 143 % T/C
- B 16 Dose producing the maximum % T/C (B16 Melanoma): 20 mg/kg/inj.
- B 16 Maximum % T/C (B16 Melanoma): 150 % T/C

Molecule: Bis[1,2-bis(diphenylphosphino)ethane] dichloro rhodium(III) perchlorate [TNO 355]
- P 388 Dose producing the maximum % T/C (P388 murine leukemia): 100 mg/kg
- P 388 Maximum % T/C (P388 murine leukemia): 167 % T/C
- L1210 Dose producing the maximum % T/C (L1210 murine leukemia): 80 mg/kg
- L1210 Max. % T/C (L1210 murine leukemia): 114 % T/C
- L1210/DDP Dose producing the maximum % T/C [1]: 49 mg/kg
- L1210/DDP Max. % T/C [1]: 119 % T/C
- B 16 Dose producing the maximum % T/C (B16 Melanoma): 30 mg/kg/inj.
- B 16 Maximum % T/C (B16 Melanoma): 171 % T/C

Molecule: Bis[1,2-bis(diphenylphosphino)ethane] iridium(I) perchlorate [TNO 344]
- P 388 Dose producing the maximum % T/C (P388 murine leukemia): 200 mg/kg
- P 388 Maximum % T/C (P388 murine leukemia): 167 % T/C
- B 16 Dose producing the maximum % T/C (B16 Melanoma): 20 mg/kg/inj.
- B 16 Maximum % T/C (B16 Melanoma): 150 % T/C

Molecule: Bis[1,2-bis(diphenylphosphino)ethane] nickel(II) perchlorate [TNO 404]
- P 388 Dose producing the maximum % T/C (P388 murine leukemia): 25 mg/kg
- P 388 Maximum % T/C (P388 murine leukemia): 240 % T/C

Molecule: Bis[1,2-bis(diphenylphosphino)ethane]palladium(II) dichlorate [TNO 306]
- IC 50 (concentration which inhibits cell growth by 50%), B 16 [2]: 57 µg/mL
- P 388 Dose producing the maximum % T/C (P388 murine leukemia): 60 mg/kg
- P 388 Maximum % T/C (P388 murine leukemia): 144 % T/C
- L1210 Dose producing the maximum % T/C (L1210 murine leukemia): 1.9 mg/kg
- L1210 Max. % T/C (L1210 murine leukemia): 100 % T/C
- L1210/DDP Dose producing the maximum % T/C [1]: 3.0 mg/kg
- L1210/DDP Max. % T/C [1]: 100 % T/C
- B 16 Dose producing the maximum % T/C (B16 Melanoma): 12 mg/kg/inj.
- B 16 Maximum % T/C (B16 Melanoma): 202 % T/C and 151 % T/C

Molecule: Bis[cis-1,2-bis(diphenylphosphino)ethylene]dichloro iron(III) tetrachloroferrate(III) [TNO 405]
- P 388 Dose producing the maximum % T/C (P388 murine leukemia): 100 mg/kg
- P 388 Maximum % T/C (P388 murine leukemia): 160 % T/C

Molecule: Bis[cis-1,2-bis(diphenylphosphino)ethylene]palladium(II) dichloride [TNO 357]
- IC 50 (concentration which inhibits cell growth by 50%), B 16 [2]: 27.7 µg/mL
- IC 50 (concentration which inhibits cell growth by 50%), HCT 116 [3]: 13.1 µg/mL
